This is an account of results in patent publication US20240383955A1, “MODIFIED ANTIMICROBIAL PEPTIDES” (priority 2021, published 2024).

Values after ≈ are worked out from the molar mass of the structure shown. Where two headings read alike, the source gives them in different places. Peptide text beside a SMILES is read from it.

In test [1] the test system is B. cinerea, F. graminearum, F. oxysporum and P. capsici. The format is cell-based. Conditions: in vitro, low cationic conditions; against B. cinerea, F. graminearum, F. oxysporum and P. capsici.
The next test deals with C. parapsilosis. In words: MIC by CLSI M27/M38 methodology. It counts as cell-based, Candida parapsilosis. The note with it: C. parapsilosis isolate ATCC 22019; Table 8. How it is done:
(§1) Testing for antifungal activity used half-strength potato dextrose broth for peptides and RPMI for comparator antifungals fluconazole and voriconazole. CLSI M27 and M38 methodologies used for to measure MICs. Minimal Inhibitory Concentration (MIC) is the concentration of the compound, protein, or peptide at which there is no significant growth of the microorganism relative to the growth of the microorganism in growth medium lacking the compound, protein, or peptide.
(§2) […] The concentration range for peptides in potato dextrose broth was 0.06-2 mcg/ml, the concentration range for fluconazole was 0.125-64 mcg/ml, and the concentration range for voriconazole was 0.03-16 mcg/ml. MICs were determined at 24-72 hours.

Another test deals with Aspergillus fumigatus. In words: MIC by CLSI M27/M38 methodology. It counts as cell-based. Conditions: Table 8. As for the experimental part: as §1, §2
The next test deals with Candida albicans. In words: MIC by CLSI M27/M38 methodology. Conditions: Table 8. The format is cell-based. How it is done: as §1, §2
In the next test the test system is Candida auris. Put plainly: MIC by CLSI M27/M38 methodology. The format is cell-based. The note with it: Table 8. As for the experimental part:
as §1, §2

In a further test the test system is Fusarium (F. oxysporum). In words: MIC by CLSI M27/M38 methodology. The note with it: Table 8. The format is cell-based. As for the experimental part:
as §1, §2

In another test the test system is Fusarium (F. solani). In words: MIC by CLSI M27/M38 methodology. Conditions: Fusarium isolate F4 (F. solani); Table 8. The format is cell-based. How it is done:
as §1, §2

A further test concerns Coccidioides sp. It counts as cell-based. Conditions: Table 8.
A further test has as its system B. cinerea. In words: In vitro antifungal activity (MIC) in SFM culture media, with or without added salts. Conditions: B. cinerea.

Turning to `N=C(N)NCCC[C@H](NC(=O)CNC(=O)[C@@H](N)Cc1ccccc1)C(=O)N[C@@H](CS)C(=O)N[C@@H](CCCNC(=N)N)C(=O)NCC(=O)N[C@@H](Cc1ccccc1)C(=O)N[C@@H](CCCNC(=N)N)C(=O)N[C@@H](CCCNC(=N)N)C(=O)N[C@@H](CCCNC(=N)N)C(=O)N[C@@H](CS)C(=O)N[C@@H](Cc1ccccc1)C(=O)N[C@@H](CS)C(=O)N[C@@H](Cc1c[nH]c2ccccc12)C(=O)N[C@@H](CCCNC(=N)N)C(=O)N[C@@H](Cc1c[nH]c2ccccc12)C(=O)N[C@@H](CS)C(N)=O` [GMA4C_V4A] (H-FGRCRGFRRRCFCWRWC-NH2; N-terminus assumed), the “antifungal activity relative to the wild-type GMA4C_AC control” value in test [1] is given as “equivalent to the wild-type GMA4C_AC control”. For the same compound, the “MIC, 100%” value in the test with C. parapsilosis was 8 µg/mL (≈ 3.49 µM); with Aspergillus fumigatus (Aspergillus fumigatus isolate AF293) it was 16 µg/mL (≈ 6.97 µM); in the test on Aspergillus fumigatus (Aspergillus fumigatus isolate DI15-106), 16 µg/mL (≈ 6.97 µM); in the test with Aspergillus fumigatus (Aspergillus fumigatus isolate DI15-116), 32 µg/mL (≈ 13.9 µM); against Candida albicans (Candida albicans isolate ATCC 90028), 8 µg/mL (≈ 3.49 µM); with Candida albicans (Candida albicans isolate CA3) it was 8 µg/mL (≈ 3.49 µM). Besides, the “MIC, 100%” value in the test on Candida albicans (Candida albicans isolate SC5314), in the test with Candida auris (Candida auris isolate DI17-46), in the test with Candida auris (Candida auris isolate DI17-47), in the test on Candida auris (Candida auris isolate DI17-48), in the test on Fusarium (F. oxysporum) (Fusarium isolate F1 (F. oxysporum)) and with Fusarium (F. oxysporum) (Fusarium isolate F2 (F. oxysporum)) was 8 µg/mL (≈ 3.49 µM) each time. The “MIC, 100%” value is 8 µg/mL (≈ 3.49 µM) against Fusarium (F. solani), 4 µg/mL (≈ 1.74 µM) in the test on Coccidioides sp. (Coccidioides sp. isolate Cocci1), 16 µg/mL (≈ 6.97 µM) with Coccidioides sp. (Coccidioides sp. isolate Cocci2) and 16 µg/mL (≈ 6.97 µM) against Coccidioides sp. (Coccidioides sp. isolate DI17-143). Further, the “fungal growth inhibition at 6 μM” value in the test with B. cinerea (in presence of 2 mM CaCl2, peptide 6 μM) was “inhibit fungal growth”. The “potency of antifungal activity relative to GMA4C_AC” value in the test with B. cinerea (in presence of 100 mM NaCl or 100 mM KCl) came to 2 fold.
